Test results reported in US12018059B2, “Human amylin analog polypeptides and methods of use” (Intarcia Therapeutics, Inc., priority 2018, dated 2024).
Like-named read-outs stand apart in the source and are kept apart here. Positions of bridges follow the written chain, without caps; N, C: chain ends. Residues, ends and D or L forms follow the SMILES beside them.

Test: Pharmacokinetics, 3-hour intravenous infusion of linear (non-acylated) polypeptides
Set-up: species or system Sprague-Dawley rats
Details: rat, in vivo, 0.1 mg/kg
Protocol: Peptides were dissolved in sterile saline and administered as a 3-hour intravenous infusion to non-fasted male Sprague-Dawley rats (n=3 per group) via femoral vein cannula at a final dose of 0.100 mg/kg. […] Blood samples (approximately 250 μL) were collected for pharmacokinetic analysis via a jugular vein cannula at 0.25, 0.5, 1, 2, 3, 3.17, 3.33, 3.5, 4, 4.5, 5, and 6 hr post-start of infusion (long method) or at 1, 1.5, 2, 2.5, and 3 hr post-start of infusion (steady-state screening method). All samples were collected into microtainer tubes containing K2EDTA as anticoagulant and 25 μL of a protease inhibitor cocktail. Plasma was prepared by centrifugation and stored at −80° C. until analysis. The results of this analysis are shown in Table 9 and few exemplars in FIGS. 3a-3b.
A 60 μL aliquot of each plasma sample was placed into to a 96-well plate. To each well was added 6 μL of 0.5% Tween-20. Plates were then vortexed mixed for 10 minutes at 1200 rpm before 180 μL of 0.1% TFA in 2:1 ethanol:acetonitrile containing an appropriate internal standard was added to each well. Plates were vortex mixed for 5 min at 1300 rpm, and then centrifuged for 10 min at 2844×g. Supernatants (180 μL) were placed into a clean 96-well plate and evaporated under a nitrogen stream at 45° C. Residues were reconstituted in 80 μL of 20% acetonitrile (aq) containing 0.1% formic acid.
A […] aliquot of each plasma sample was diluted with […] of 10 mM ammonium acetate (pH 6.8) containing an appropriate internal standard and loaded onto an Oasis WCX microElution plate (Waters Corporation, Milford, MA) that had been pre-conditioned with […] of methanol and […] of deionized water. Samples were washed with […] of 5% ammonium hydroxide (aq) followed by […] of 20% acetonitrile in water. The analyte was eluted with […] of 5% formic acid in 75:25 acetonitrile:water. The eluent was dried under a nitrogen stream. Residues were reconstituted in 80 μL of 20% acetonitrile (aq) containing 0.1% formic acid.
All calibration standards were prepared in control rat plasma containing K2EDTA and protease inhibitor cocktail.
Samples and standards were analyzed by TurbolonSpray™ UPLC-MS/MS using a system consisting of a CTC HTS PAL auto-injector (Leap, Carrboro, NC), an Agilent Infinity 1290 system with column oven (Palo Alto, CA), a Valco switching valve (Houston, TX), and either an AB Sciex API 5600 TripleTOF™ or Sciex API 4000QTrap mass spectrometer (Framingham, MA). Samples were injected onto a 2.1×50 mm reverse phase C18 analytical column, typically a Waters CORTECS UPLC C18+, 1.6 μm (Waters Corporation, Milford, MA) or similar. […] Initial conditions consisted of 90% A and 10% B. The organic component was increased to 95% B over a period of 3-4 minutes, depending on the peptide. Typical flow rates were 600 μL/min. The column temperature was held constant at 40 or 50° C. Peptides were quantified by monitoring one or more product ions produced from a multiply charged parent ion.

SMILES	clearance (iv) [L/h/kg]	clearance (linear polypeptides, 3-hour intravenous infusion, 0.100 mg/kg, male Sprague-Dawley rats, read-out: CL) [L/h/kg]
CC[C@H](C)[C@H](NC(=O)[C@@H]1CCCN1C(=O)CNC(=O)[C@H](Cc1ccccc1)NC(=O)[C@H](CC(N)=O)NC(=O)[C@H](CC(N)=O)NC(=O)[C@H](CO)NC(=O)[C@H](CO)NC(=O)[C@H](CCCNC(=N)N)NC(=O)[C@H](Cc1c[nH]cn1)NC(=O)[C@H](CC(C)C)NC(=O)[C@H](CCC(=O)O)NC(=O)[C@H](CC(N)=O)NC(=O)[C@H](CO)NC(=O)[C@H](CC(C)C)NC(=O)[C@H](CCCNC(=N)N)NC(=O)[C@H](CCC(N)=O)NC(=O)[C@@H](NC(=O)[C@H](C)NC(=O)[C@@H]1CSSC[C@H](NC(=O)[C@@H](N)CO)C(=O)N[C@@H](CC(N)=O)C(=O)N[C@@H]([C@@H](C)O)C(=O)N[C@@H](CO)C(=O)N[C@@H]([C@@H](C)O)C(=O)N1)[C@@H](C)O)C(=O)N[C@@H](CC(C)C)C(=O)N1CCC[C@H]1C(=O)N1CCC[C@H]1C(=O)N[C@H](C(=O)N[C@@H](CCCCN)C(=O)N[C@H](C(=O)NCC(=O)N[C@@H](CO)C(=O)N[C@@H](CCC(=O)O)C(=O)N[C@H](C(=O)N[C@@H](Cc1ccc(O)cc1)C(N)=O)[C@@H](C)O)C(C)C)[C@@H](C)O [Compound A34] (H-SCNTSTCATQRLSNELHRSSNNFGPILPPTKVGSETY-NH2; disulfide 2-7)	0.93	
CC[C@H](C)[C@H](NC(=O)[C@@H]1CCCN1C(=O)CNC(=O)[C@H](Cc1ccccc1)NC(=O)[C@H](CCC(=O)O)NC(=O)[C@H](CC(N)=O)NC(=O)[C@H](CO)NC(=O)[C@H](CO)NC(=O)[C@H](CCCNC(=N)N)NC(=O)[C@H](Cc1c[nH]cn1)NC(=O)[C@H](CC(C)C)NC(=O)[C@H](CCC(=O)O)NC(=O)[C@H](CC(N)=O)NC(=O)[C@H](C)NC(=O)[C@H](CC(C)C)NC(=O)[C@H](CCCNC(=N)N)NC(=O)[C@H](CCC(N)=O)NC(=O)[C@@H](NC(=O)[C@H](C)NC(=O)[C@@H]1CSSC[C@H](NC(=O)[C@@H](N)CO)C(=O)N[C@@H](CC(N)=O)C(=O)N[C@@H]([C@@H](C)O)C(=O)N[C@@H](CO)C(=O)N[C@@H]([C@@H](C)O)C(=O)N1)[C@@H](C)O)C(=O)N[C@@H](CC(C)C)C(=O)N1CCC[C@H]1C(=O)N1CCC[C@H]1C(=O)N[C@H](C(=O)N[C@@H](CC(N)=O)C(=O)N[C@H](C(=O)NCC(=O)N[C@@H](CO)C(=O)N[C@@H](CC(N)=O)C(=O)N[C@H](C(=O)N[C@@H](Cc1ccc(O)cc1)C(N)=O)[C@@H](C)O)C(C)C)[C@@H](C)O [Compound A41] (H-SCNTSTCATQRLANELHRSSNEFGPILPPTNVGSNTY-NH2; disulfide 2-7)		1.05
CC[C@H](C)[C@H](NC(=O)[C@@H]1CCCN1C(=O)CNC(=O)[C@H](Cc1ccccc1)NC(=O)[C@H](CCC(=O)O)NC(=O)[C@H](CC(N)=O)NC(=O)[C@H](CO)NC(=O)[C@H](CO)NC(=O)[C@H](CCCCN)NC(=O)[C@@H](NC(=O)[C@H](CC(C)C)NC(=O)[C@H](Cc1ccccc1)NC(=O)[C@H](CC(N)=O)NC(=O)[C@H](C)NC(=O)[C@H](CC(C)C)NC(=O)[C@H](CCCNC(=N)N)NC(=O)[C@H](CCC(N)=O)NC(=O)[C@@H](NC(=O)[C@H](C)NC(=O)[C@@H]1CSSC[C@H](NC(=O)[C@@H](N)CO)C(=O)N[C@@H](CC(N)=O)C(=O)N[C@@H]([C@@H](C)O)C(=O)N[C@@H](CO)C(=O)N[C@@H]([C@@H](C)O)C(=O)N1)[C@@H](C)O)C(C)C)C(=O)N[C@@H](CC(C)C)C(=O)N1CCC[C@H]1C(=O)N1CCC[C@H]1C(=O)N[C@H](C(=O)N[C@@H](CCCCN)C(=O)N[C@H](C(=O)NCC(=O)N[C@@H](CO)C(=O)N[C@@H](CCC(=O)O)C(=O)N[C@H](C(=O)N[C@@H](Cc1ccc(O)cc1)C(N)=O)[C@@H](C)O)C(C)C)[C@@H](C)O [Compound A43] (H-SCNTSTCATQRLANFLVKSSNEFGPILPPTKVGSETY-NH2; disulfide 2-7)	1.39	
